Test results as given in US4351840A, “Antibacterial esters of resorcinol with ampicillin and penicillanic acid 1,1-dioxide derivatives” (priority 1981, dated 1982).
Read-outs that look alike come from different tables or passages of the source.

Tests used:
[1] = test system: beta-lactamase from Escherichia coli 51A129; assay: Inhibition of ampicillin hydrolysis by cell-free beta-lactamase (microiodometric); type: biochemical; conditions: ampicillin 33 μM, pH 6.5, 37° C.
Method: (§1) The compounds of the present invention are thus evaluated in vitro by the ability of penicillanic acid 1,1-dioxide derivatives of the formula (IV) to inhibit the hydrolysis of beta-lactam antibiotics by beta-lactamase enzymes. The hydrolysis of ampicillin was determined by the microiodometric method of Novick [Biochem, J. 83, 236 (1962)]. Conditions for this assay are 0.5 M potassium phosphate, pH 6.5 and 37° C. Reactions were initiated by the addition of the cell-free beta-lactamase, except in the case of preincubation experiments in which the inhibitor and enzyme were incubated together in the assay mixture for 10 minutes before initiation of the reaction by addition of substrate. With the cellfree extracts of Staphylococcus aureus, Escherichia coli, Klebsiella pneumoniae and Pseudomonas aeruginosa, the substrate was ampicillin at 33 micro M (13 microg./ml). Typical specific activities of the beta-lactamase preparations were, respectively, 6,019, 88,970, 260 and 76 micromol/hr. per mg. of protein.
(§2) Cell-free extracts were prepared by sonic treatment (using three 30-s bursts at 4° C. except for S. aureus, which was broken with a French press) of cultures grown in brain heart infusion on a rotary shaker incubator. For the S. aureus, P. aeruginose, and E. cloacae strains, de novo synthesis of beta-lactamase was induced by growing a log-phase culture in the presence of a sublethal concentration of penicillin G at 100, 1,000, and 300 microg./ml, respectively, for 2.5 hr.

[2] = test system: beta-lactamase from Klebsiella pneumoniae 53A129; assay: as above; type: biochemical; conditions: ampicillin 33 μM, pH 6.5, 37° C.
Method: as §1, §2

[3] = target: T1, beta-lactamase from Staphylococcus aureus 01A400 (Staphylococcus aureus, UniProt P00807); assay: as above; type: biochemical
T1 construct: Cell-free extracts were prepared by sonic treatment; endogenous in cells; host or cells: Staphylococcus aureus strain 01A400, induced with penicillin G; cell-free extract by French press
T1 sequence (P00807 25-281): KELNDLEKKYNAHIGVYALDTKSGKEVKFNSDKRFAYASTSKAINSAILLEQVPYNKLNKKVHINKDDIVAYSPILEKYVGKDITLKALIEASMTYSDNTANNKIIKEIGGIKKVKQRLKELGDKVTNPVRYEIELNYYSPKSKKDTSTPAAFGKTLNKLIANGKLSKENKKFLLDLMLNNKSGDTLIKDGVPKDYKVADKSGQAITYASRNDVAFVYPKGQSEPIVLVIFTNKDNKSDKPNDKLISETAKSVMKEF
Method: as §1, §2

[4] = target: beta-lactamase from Pseudomonas aeruginosa 52A104 (Pseudomonas aeruginosa, UniProt P24735); assay: as above; type: biochemical; conditions: ampicillin 33 μM, pH 6.5, 37° C., read-out: % Inhibition Beta-Lactam Hydrolysis
beta-lactamase from Pseudomonas aeruginosa 52A104, sequence (P24735 27-397): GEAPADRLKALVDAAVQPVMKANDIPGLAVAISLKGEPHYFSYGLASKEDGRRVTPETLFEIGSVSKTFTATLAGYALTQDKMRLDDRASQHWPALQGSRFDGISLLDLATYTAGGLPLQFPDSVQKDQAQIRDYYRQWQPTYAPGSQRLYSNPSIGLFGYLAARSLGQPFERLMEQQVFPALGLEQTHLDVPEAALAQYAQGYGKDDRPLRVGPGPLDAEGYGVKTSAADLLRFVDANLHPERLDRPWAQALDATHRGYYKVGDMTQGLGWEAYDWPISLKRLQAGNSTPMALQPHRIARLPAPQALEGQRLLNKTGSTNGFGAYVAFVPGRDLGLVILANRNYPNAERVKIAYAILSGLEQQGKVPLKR
Method: as §1, §2

[5] = test system: Citrobacter diversus 70C031; assay: Minimum inhibitory concentration on BHI agar; type: cell-based; conditions: 18 hrs., 37° C., inhibitor alone or 1:1 mixture with ampicillin
Method: (§3) The procedure which follows is the one recommended by the International Collaborative Study on Antibiotic Sensitivity Testing [Ericcson and Sherris, Acta. Pathologica et Microbiologia Scandinav, Supp. 217, Sections A and B: 64-68 (1971)], and employs brain heart infusion (BHI) agar and the inocula replicating device. Overnight growth tubes are diluted 100 fold for use as the standard inoculum (20,000-10,000 cells in approximately 0.002 ml are placed on the agar surface; 20 ml of BHI agar/dish). Twelve 2 fold dilutions of the test compound are employed, with initial concentration of the test drug being 200 mcg/ml. Single colonies are disregarded when reading tubes after 18 hrs. at 37° C.
(§4) These MIC's are then compared with the MIC values obtained with a combination of ampicillin and the beta-lactamase inhibitor. […] The MIC values of combinations are measured using the method described by Barry and Sabath in "Manual of Clinical Microbiology", edited by Lenette, Spaulding and Truant, 2nd Edition, 1974, American Society for Microbiology.

[6] = test system: Enterobacter cloacae 67B009; assay: Minimum inhibitory concentration on BHI agar; type: cell-based; conditions: 18 hrs., 37° C., inhibitor alone or 1:1 mixture with ampicillin
Method: as §3, §4

[7] = test system: Escherichia coli 51A266; assay: Minimum inhibitory concentration on BHI agar; type: cell-based; conditions: 18 hrs., 37° C., inhibitor alone or 1:1 mixture with ampicillin
Method: as §3, §4

[8] = test system: Klebsiella pneumoniae 53A079; assay: Minimum inhibitory concentration on BHI agar; type: cell-based; conditions: 18 hrs., 37° C., inhibitor alone or 1:1 mixture with ampicillin
Method: as §3, §4

[9] = test system: Proteus morgani 57G001; assay: Minimum inhibitory concentration on BHI agar; type: cell-based; conditions: 18 hrs., 37° C., inhibitor alone or 1:1 mixture with ampicillin
Method: as §3, §4

[10] = test system: Pseudomonas aeruginosa 52A104; assay: Minimum inhibitory concentration on BHI agar; type: cell-based; conditions: 18 hrs., 37° C., inhibitor alone or 1:1 mixture with ampicillin
Method: as §3, §4

[11] = test system: Serratia marcescens 63A095; assay: Minimum inhibitory concentration on BHI agar; type: cell-based; conditions: 18 hrs., 37° C., inhibitor alone or 1:1 mixture with ampicillin
Method: as §3, §4

[12] = test system: Staphylococcus aureus 01A005; assay: Minimum inhibitory concentration on BHI agar; type: cell-based; conditions: 18 hrs., 37° C., inhibitor alone or 1:1 mixture with ampicillin
Method: as §3, §4

[13] = test system: Staphylococcus aureus 01A400; assay: Minimum inhibitory concentration on BHI agar; type: cell-based; conditions: 18 hrs., 37° C., inhibitor alone or 1:1 mixture with ampicillin
Method: as §3, §4

[14] = pH 6.5, read-out: % Inhibition Beta-Lactam Hydrolysis

CC1(C)[C@H](C(=O)O)N2C(=O)[C@@H](CO)[C@H]2S1(=O)=O [A, 6-beta-(Hydroxymethyl)pencillanic acid 1,1-dioxide] was tested, and the “% Inhibition Beta-Lactam Hydrolysis” value ([1]; inhibitor 0.67 μM) was 92.1%, the “% Inhibition Beta-Lactam Hydrolysis” value ([1]; inhibitor 1.0 μM) was 95.7% and the “% Inhibition Beta-Lactam Hydrolysis” value ([1]; inhibitor 16.5 μM) was 100%. The “% Inhibition Beta-Lactam Hydrolysis” value ([1]; inhibitor 66 μM) was 100%, the “% Inhibition Beta-Lactam Hydrolysis” value ([2]; inhibitor 1.0 μM) was 81.2% and the “% Inhibition Beta-Lactam Hydrolysis” value ([2]; inhibitor 16.5 μM) was 100%. For the same compound, the “% Inhibition Beta-Lactam Hydrolysis” value ([2]; inhibitor 66 μM) was 100%, the inhibition at 1 µM ([3]; inhibitor 1.0 μM, ampicillin 33 μM, pH 6.5, 37° C., read-out: % Inhibition Beta-Lactam Hydrolysis) was 39.3% and the inhibition at 16.5 µM ([3]; inhibitor 16.5 μM, ampicillin 33 μM, pH 6.5, 37° C., read-out: % Inhibition Beta-Lactam Hydrolysis) was 78.8%. The inhibition at 66 µM ([3]; inhibitor 66 μM, ampicillin 33 μM, pH 6.5, 37° C., read-out: % Inhibition Beta-Lactam Hydrolysis) was 98.3%.
With CC1(C)[C@H](C(=O)O)N2C(=O)C[C@H]2S1(=O)=O [B, Penicillanic acid 1,1-dioxide] the “% Inhibition Beta-Lactam Hydrolysis” value ([1]; inhibitor 1.0 μM) was 97.0%, the “% Inhibition Beta-Lactam Hydrolysis” value ([1]; inhibitor 16.5 μM) was 100% and the “% Inhibition Beta-Lactam Hydrolysis” value ([1]; inhibitor 66 μM) was 100%. For the same compound, the “% Inhibition Beta-Lactam Hydrolysis” value ([2]; inhibitor 16.5 μM) was 100%, the “% Inhibition Beta-Lactam Hydrolysis” value ([2]; inhibitor 66 μM) was 100% and the inhibition at 16.5 µM ([4]; inhibitor 16.5 μM) was 5%. The inhibition at 66 µM ([4]; inhibitor 66 μM) was 27.5%, the inhibition at 1 µM [3, 14] was 0% and the inhibition at 16.5 µM [3, 14] was 95%. For the same compound, the inhibition at 66 µM [3, 14] was 100%, the MIC [5] was 200 mg/L and the MIC [6] was 100 mg/L. The MIC [7] was 25 mg/L, the MIC [8] was 50 mg/L and the MIC [9] was 200 mg/L. It also gave an MIC [10] of over 200 mg/L, an MIC [11] of 200 mg/L and an MIC [12] of 100 mg/L. It also gave an MIC [13] of 200 mg/L.
